Legend:
8505C cells [1] = assay: Mouse orthotopic xenograft model of ATC, survival; conditions: for Median Survival: Nu/Nu mice, thyroid orthotopic 8505C, control 22 days; for Hazard ratio: relative Control (untreated) mice, orthotopic 8505C
[2] = for Histological evidence of toxicity: GI, affected/total (fraction) / Histological evidence of toxicity: Heart, affected/total (fraction) / Histological evidence of toxicity: Liver, Glycogen, affected/total (fraction) / Histological evidence of toxicity: Liver, Vaculation, affected/total (fraction) / Histological evidence of toxicity: Pancreas, affected/total (fraction): C57BL6/J; for Histological evidence of toxicity: GI, affected/total (fraction) / Histological evidence of toxicity: Heart, affected/total (fraction) / Histological evidence of toxicity: Liver, Glycogen, affected/total (fraction) / Histological evidence of toxicity: Liver, Vaculation, affected/total (fraction) / Histological evidence of toxicity: Pancreas, affected/total (fraction) / Lethality or lethargy: 7 days; for Lethality or lethargy: super-therapeutic doses
8505C cells [3] = assay: CellTiter-Glo dose-response in 8505C cells after siRNA knockdown; type: cell-based, human; conditions: for IC50: Homo sapiens, 72 h
THJ-29T = assay: 72-hr survival dose-response of ATC cell line THJ-29T; type: cell-based; conditions: Homo sapiens
NFκB-p65 (RelA) = assay: Western blot of NFκB-p65/RelA expression; type: cell-based, human; conditions: 8505C and THJ-16T cells, S 10 µM, Q 20 µM
THJ-16T = assay: 72-hr survival dose-response of ATC cell line THJ-16T
THJ-21T = assay: 72-hr survival dose-response of ATC cell line THJ-21T; type: cell-based; conditions: Homo sapiens
8505C = assay: Flow cytometric sub-G1 programmed cell death; type: cell-based, human; conditions: short-term treatment, S10, Q20, S10Q20

Row | Compound | Median Survival (8505C cells [1]) | Hazard ratio (8505C cells [1]) | Histological evidence of toxicity: GI, affected/total (fraction) ([2]; mouse, in vivo) | Histological evidence of toxicity: Heart, affected/total (fraction) ([2]; mouse, in vivo) | Histological evidence of toxicity: Liver, Glycogen, affected/total (fraction) ([2]; mouse, in vivo) | Histological evidence of toxicity: Liver, Vaculation, affected/total (fraction) ([2]; mouse, in vivo) | Histological evidence of toxicity: Pancreas, affected/total (fraction) ([2]; mouse, in vivo) | Lethality or lethargy [2] | IC50 (THJ-29T) | IC50 (THJ-21T) | sub-G1 DNA (8505C) | other results
1 | COc1cccc2c1C(=O)c1c(O)c3c(c(O)c1C2=O)C[C@@](O)(C(=O)CO)C[C@@H]3O[C@H]1C[C@H](N)[C@H](O)[C@H](C)O1 [Doxorubicin] | 31 days | 0.709 | 4/5 (0.80) | 0/5 (0) | 3/5 (0.60) | 4/5 (0.80) | 4/5 (0.80) | No lethality or lethargy | – | – | – | Level of platelets in blood ([2]; mouse, in vivo): increased level; Number of RBC's and hemoglobin (Hgb) ([2]; mouse, in vivo): reduction
2 | CCN(CC)CCCC(C)Nc1c2ccc(Cl)cc2nc2ccc(OC)cc12 (centres unmarked) [Quinacrine] | 32 days | – | 0/4 (0) | 1/5 (0.20) | 3/4 (0.75) | 3/4 (0.75) | 0/4 (0) | – | 12.7 µM | 15.4 µM | Increased | Impact of p65/RelA siRNA on survival dose-response relationship (8505C cells [3]): did not have any significant impact; Effect of Mcl-1 knockdown on IC50 (8505C cells [3]; Mcl-1 siRNA): did not affect; Expression of NFκB-p65 (RelA) (NFκB-p65 (RelA)): inhibited; IC50 (THJ-16T; Homo sapiens, 72 h): 18.4 µM
3 | CNC(=O)c1cc(Oc2ccc(NC(=O)Nc3ccc(Cl)c(C(F)(F)F)c3)cc2)ccn1 [Sorafenib] | 26 days | 0.846 | 0/5 (0) | 0/5 (0) | 4/5 (0.80) | 4/5 (0.80) | 5/5 (1.00) | No lethality or lethargy | 4.5 µM | 12.4 µM | Increased | Increased sensitization by p65/RelA siRNA compared to Scr siRNA (8505C cells [3]): approximately 2 fold; IC50 (8505C cells [3]; scrambled (Scr) siRNA): 10.5 µM; IC50 (8505C cells [3]; siRNA targeting p65/RelA): 5.15 µM; IC50 (THJ-16T; THJ-16T, 72-hr survival): 31 µM

Source: article PMC7524204 (Clinical cancer research : an official journal of the …, 2016)
